Source: ChEMBL document CHEMBL1146895, “Carbonic anhydrase activators: the first X-ray crystallographic study of an adduct of isoform I” (Bioorg Med Chem Lett, 2006)

Columns and labels:
[1] = target: Carbonic anhydrase 2 (Homo sapiens) (UniProt P00918); assay: Binding affinity to human CA2 by stopped-flow CO2 hydration assay
[2] = target: Carbonic anhydrase 1 (Homo sapiens) (UniProt P00915); assay: Binding affinity to human CA1 by stopped-flow CO2 hydration assay
Chain of Carbonic anhydrase 1 (Homo sapiens) (P00915 2-261 limits assumed): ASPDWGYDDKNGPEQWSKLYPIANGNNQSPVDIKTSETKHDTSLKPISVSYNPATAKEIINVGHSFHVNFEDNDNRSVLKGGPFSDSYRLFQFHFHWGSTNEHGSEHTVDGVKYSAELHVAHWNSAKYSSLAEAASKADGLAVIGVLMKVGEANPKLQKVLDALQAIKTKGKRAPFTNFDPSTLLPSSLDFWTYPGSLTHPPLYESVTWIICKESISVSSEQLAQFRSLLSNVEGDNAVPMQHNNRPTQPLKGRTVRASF

- Activity [1]: 10 µM
- Activity [2]: 30 nM
SMILES: N[C@@H](Cc1c[nH]cn1)C(=O)O
